Data on eight compounds can be found in PubChem BioAssay (NCI).

Some test systems named below: ACHN renal; K-562 leukemia; KM12 colon; LOX IMVI melanoma; OVCAR-8 ovarian; SF-295 CNS; SF-539 CNS; SNB-75 CNS; UACC-257 melanoma; UO-31 renal.
Holding throughout (assay): NCI-60 cell line screen, 48 h

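Dose response: 5 concentrations. Exposure: 48 h. Format: 96-well plates. Endpoint: linear interpolation; highest concentration if not reached. Abbreviation: GI50, concentration required for 50% inhibition of growth. TGI: total growth inhibition.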

For the compound `C#Cc1cccc(NC(=O)c2ccc(NC(=O)CCl)cc2)c1`, the GI50 in the experiment with ACHN renal was 26.3 µM; with K-562 leukemia, 17.4 µM; in the experiment on KM12 colon it was 47 µM; in the experiment on LOX IMVI melanoma it was 11.2 µM; with OVCAR-8 ovarian it was 22.5 µM; with SF-295 CNS it was greater than 82.5 µM. In addition, the GI50 was 12.6 µM in the experiment with SF-539 CNS, 17.2 µM with SNB-75 CNS, greater than 82.5 µM in the experiment on UACC-257 melanoma and 9.48 µM in the experiment with UO-31 renal. The TGI in the experiment on ACHN renal is greater than 82.5 µM; in the experiment on K-562 leukemia, greater than 82.5 µM; in the experiment on KM12 colon it was greater than 82.5 µM; in the experiment with LOX IMVI melanoma, 23.5 µM; in the experiment with OVCAR-8 ovarian it was greater than 82.5 µM; in the experiment with SF-295 CNS, greater than 82.5 µM. The TGI in the experiment with SF-539 CNS was 24.7 µM; in the experiment on SNB-75 CNS it was greater than 82.5 µM; with UACC-257 melanoma it was greater than 82.5 µM; in the experiment on UO-31 renal, 20.3 µM.

`Cc1ccc(S(=O)(=O)N2CCc3ccc(O)c4c3C2Cc2ccc3c(c2-4)OCO3)cc1` (stereo not given): the GI50 was 0.769 µM in the experiment with ACHN renal; 0.455 µM with K-562 leukemia; 0.456 µM in the experiment with KM12 colon; 0.635 µM with LOX IMVI melanoma; 1.41 µM in the experiment on OVCAR-8 ovarian; 1.38 µM in the experiment with SF-295 CNS. In addition, the GI50 was 1.02 µM with SF-539 CNS, 0.288 µM in the experiment with SNB-75 CNS, 0.656 µM in the experiment with UACC-257 melanoma and 0.904 µM in the experiment with UO-31 renal. The TGI with ACHN renal is greater than 60.8 µM; in the experiment on K-562 leukemia, greater than 100 µM; in the experiment with KM12 colon, 3.66 µM; with LOX IMVI melanoma, 4.68 µM; with OVCAR-8 ovarian, 20.7 µM; in the experiment on SF-295 CNS, 12 µM. The TGI turned out to be 5.26 µM in the experiment with SF-539 CNS, 9.59 µM in the experiment on SNB-75 CNS, 18.1 µM in the experiment with UACC-257 melanoma and 11.8 µM with UO-31 renal.

As to `CSc1ccc(C(=O)/C=C/c2ccccc2Cl)cc1`, the GI50 with ACHN renal is 15 µM; in the experiment on K-562 leukemia, 18.8 µM; with KM12 colon it was 16.6 µM; with LOX IMVI melanoma, 6.08 µM; in the experiment with OVCAR-8 ovarian it was 15.8 µM; in the experiment with SF-295 CNS it was 16.1 µM. The GI50 in the experiment on SF-539 CNS is 16.5 µM; in the experiment on SNB-75 CNS, 22.2 µM; in the experiment on UACC-257 melanoma it was 15.2 µM; in the experiment with UO-31 renal, 2.31 µM. For the same compound, the TGI worked out at 28.5 µM in the experiment on ACHN renal; 58.3 µM with K-562 leukemia; 42 µM in the experiment on KM12 colon; 19.2 µM with LOX IMVI melanoma; 32.5 µM in the experiment with OVCAR-8 ovarian; 33.1 µM with SF-295 CNS. The TGI in the experiment with SF-539 CNS was determined as 33.1 µM; in the experiment on SNB-75 CNS, 45.2 µM; in the experiment with UACC-257 melanoma, 29.3 µM; in the experiment with UO-31 renal, 5.05 µM.

With `COc1cccc(Nc2nccc(-c3cnn4ncccc34)n2)c1`, the GI50 is 0.0456 µM in the experiment with ACHN renal; 0.115 µM in the experiment with K-562 leukemia; 0.0629 µM in the experiment on KM12 colon; 0.0275 µM with LOX IMVI melanoma; 0.0681 µM in the experiment on OVCAR-8 ovarian; 0.0496 µM in the experiment on SF-295 CNS. Moreover, the GI50 in the experiment on SF-539 CNS was 0.0502 µM; with SNB-75 CNS, 0.0463 µM; with UACC-257 melanoma, 0.0563 µM; in the experiment with UO-31 renal it was 0.0707 µM. The TGI in the experiment with ACHN renal was greater than 25 µM; with K-562 leukemia, greater than 25 µM; in the experiment with KM12 colon it was 0.367 µM; in the experiment with LOX IMVI melanoma it was greater than 25 µM; with OVCAR-8 ovarian it was greater than 25 µM; in the experiment on SF-295 CNS it was greater than 25 µM. The TGI was 0.143 µM with SF-539 CNS, 0.122 µM in the experiment on SNB-75 CNS, 0.16 µM in the experiment with UACC-257 melanoma and 0.21 µM in the experiment on UO-31 renal.

`C=CCN(N=O)C(=O)NCCCCC(NC(C)=O)C(=O)NCc1ccccc1` (stereo not given): the TGI in the experiment on ACHN renal, in the experiment on K-562 leukemia, with KM12 colon, with LOX IMVI melanoma, with OVCAR-8 ovarian and in the experiment on SF-295 CNS was greater than 100 µM throughout. The TGI with SF-539 CNS, with SNB-75 CNS, in the experiment on UACC-257 melanoma and in the experiment with UO-31 renal was greater than 100 µM in each case.

As to `FC(F)(F)c1cc(Nc2ccc3cc(OCCCN4CCOCC4)ccc3n2)ccc1Cl`, the GI50 is 2.05 µM in the experiment on ACHN renal; 1.04 µM in the experiment on K-562 leukemia; 1.92 µM in the experiment on KM12 colon; 1.53 µM in the experiment with LOX IMVI melanoma; 2.87 µM in the experiment with OVCAR-8 ovarian; 1.37 µM in the experiment on SF-295 CNS. Further, the GI50 with SF-539 CNS is 1.75 µM; in the experiment on SNB-75 CNS, 1.61 µM; in the experiment on UACC-257 melanoma it was 1.53 µM; in the experiment with UO-31 renal it was 1.55 µM. Further, the TGI in the experiment with ACHN renal worked out at 4.86 µM; in the experiment on K-562 leukemia it was 3.83 µM; in the experiment with KM12 colon, 4.37 µM; in the experiment with LOX IMVI melanoma, 2.99 µM; with OVCAR-8 ovarian, 10 µM; in the experiment with SF-295 CNS, 3.17 µM. Further, the TGI with SF-539 CNS was found to be 3.73 µM; in the experiment on SNB-75 CNS, 3.92 µM; in the experiment with UACC-257 melanoma, 3.32 µM; with UO-31 renal, 3.27 µM.

For the compound `CCN=C(C#N)NCC`, the TGI with ACHN renal, in the experiment on K-562 leukemia, with KM12 colon, in the experiment with LOX IMVI melanoma, in the experiment on OVCAR-8 ovarian and with SF-295 CNS was greater than 100 µM each time. The TGI with SF-539 CNS, with SNB-75 CNS, with UACC-257 melanoma and in the experiment on UO-31 renal was greater than 100 µM in each case.

Turning to `[CH3][Sn]([CH3])([CH3])[O][N+](=O)[O-]`, the GI50 in the experiment with ACHN renal is greater than 10 µM; in the experiment on K-562 leukemia, 2.63 µM; in the experiment with KM12 colon, greater than 10 µM; in the experiment on LOX IMVI melanoma it was 2.52 µM; with OVCAR-8 ovarian, 3.6 µM; in the experiment with SF-295 CNS it was 9.92 µM. For the same compound, the GI50 in the experiment on SF-539 CNS was 2.48 µM; in the experiment with SNB-75 CNS it was greater than 10 µM; with UACC-257 melanoma, 6.81 µM; with UO-31 renal, greater than 10 µM. In addition, the TGI with ACHN renal is greater than 10 µM; in the experiment on K-562 leukemia, 7.39 µM; with KM12 colon, greater than 10 µM; with LOX IMVI melanoma, 6.63 µM; in the experiment on OVCAR-8 ovarian it was greater than 10 µM; in the experiment on SF-295 CNS, greater than 10 µM. In addition, the TGI was 9.58 µM in the experiment on SF-539 CNS, greater than 10 µM with SNB-75 CNS, greater than 10 µM in the experiment on UACC-257 melanoma and greater than 10 µM with UO-31 renal.
